This is an account of results in ChEMBL document CHEMBL4184202, “New lignans attenuating cognitive deterioration of Aβ transgenic flies discovered in Acorus tatarinowii” (Bioorg Med Chem Lett, 2018).

Calls of active or inactive are those of the source. The rule behind the calls is not given here.

The test relates to Drosophila melanogaster. As to the kind of experiment: Antialzheimer disease activity in heterozygous transgenic Alzheimer's disease model fruit fly under control of elav-Gal4'C155 (P35*H29.3) expressing Abeta42 assessed as attenuation of cognitive deterioration by measuring increase in performance index by Pavlovian olfactory test. Format: functional, organism-based.

In the case of `C/C=C/c1ccc(O[C@H](C)[C@@H](O)c2cc(OC)c(OC)c(OC)c2)c(OC)c1` (relative stereo), the outcome was Active.

Regarding `COc1ccc(C(=O)[C@H]2CO[C@@H](c3ccc(OC)c(OC)c3)[C@@H]2C)cc1OC` (racemic), the result was Active.

With `CC12CC3CC(C)(C1)CC(N)(C3)C2`, the result was Active.

In the case of `C/C=C/c1cc(OC)c2c(c1)[C@@H](C)[C@H](c1ccc(OC)c(OC)c1)O2` (relative stereo), the result was Active.

Turning to `COc1cc([C@H]2O[C@@H](c3ccc(OC)c(OC)c3)[C@H](C)[C@@H]2C)ccc1O`, the outcome was Active.
